Entries after “also recorded” stand apart in the source; their conditions may differ. Like-named read-outs stand apart in the source and are kept apart here.
Legend:
[1] = target: T1, RXRα (Homo sapiens, UniProt P19793); assay: RXRα binding (competition with tritiated LGD1069)
T1 sequence (P19793 1-462): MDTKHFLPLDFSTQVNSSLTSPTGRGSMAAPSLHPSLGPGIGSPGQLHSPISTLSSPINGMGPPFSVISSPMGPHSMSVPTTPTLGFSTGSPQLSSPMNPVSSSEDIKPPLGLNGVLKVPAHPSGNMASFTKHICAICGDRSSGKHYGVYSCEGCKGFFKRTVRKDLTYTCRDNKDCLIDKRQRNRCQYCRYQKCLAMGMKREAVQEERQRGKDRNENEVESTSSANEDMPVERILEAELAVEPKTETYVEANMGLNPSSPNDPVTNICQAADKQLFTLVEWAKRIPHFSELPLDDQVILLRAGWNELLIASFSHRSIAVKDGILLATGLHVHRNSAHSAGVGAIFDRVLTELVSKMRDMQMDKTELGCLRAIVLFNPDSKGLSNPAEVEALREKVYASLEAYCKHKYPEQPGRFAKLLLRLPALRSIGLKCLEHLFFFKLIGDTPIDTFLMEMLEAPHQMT
Experimental: Non-specific binding was defined as that binding remaining in the presence of 500 nM of the appropriate unlabelled compound. At the end of the incubation period, bound ligand was separated from free. The amount of bound tritiated retinoid was determined by liquid scintillation counting of an aliquot (700 μL) of the supernatant fluid or the hydroxylapatite pellet.
After correcting for non-specific binding, IC50 values were determined. […] The IC50 value was determined graphically from a log-logit plot of the data. The Ki values were determined by application of the Cheng-Prussof equation to the IC50 values, the labeled ligand concentration and the Kd of the labeled ligand.

[2] = target: T2, RXRα homodimer (RXR:RXR) (Homo sapiens, UniProt P19793); assay: RXR homodimer co-transfection assay in CV-1 cells; format: cell-based; conditions: for activity on the RXR:RXR homodimer: cotransfection assay; for IC50: in presence of LGD1069, read-out: RXRα Homodimer Cotransfection Assay Antagonist IC50; for RXR:RXR CV-1 (%) Antag.: maximal repression (100%) in presence of 32 nM LGD1069; for RXR:RXR CV-1 (%) Ag.: maximal response relative to ATRA
T2 sequence (P19793 1-462): T1 sequence (P19793 1-462)
Source text: In the co-transfection assay, cloned cDNA for one or more IRs (e.g., human RARα, RXRα, or PPARγ), alone or in combination (i.e. for heterodimer assays) under the control of a constitutive promoter (e.g., the SV 40, RSV or CMV promoter) is introduced by transfection (a procedure to introduce exogenous genes into cells) into a background cell substantially devoid of endogenous IRs. These introduced gene(s) direct the recipient cells to make the IR protein(s) of interest. A further gene is also introduced (co-transfected) into the same cells in conjunction with the IR gene(s). This further gene, comprising the cDNA for a reporter protein, such as firefly luciferase (LUC), controlled by an appropriate hormone responsive promoter containing a hormone response element (HRE). This reporter plasmid functions as a reporter for the transcriptional-modulating activity of the target IR(s). Thus, the reporter acts as a surrogate for the products (mRNA then protein) normally expressed by a gene under control of the target receptor(s) and their native hormone(s).
Exposing the transfected cells to an agonist ligand compound increases reporter activity in the transfected cells. This activity can be conveniently measured, e.g., by increasing luciferase production and enzymatic activity, which reflects compound-dependent, IR-mediated increases in reporter transcription. […] Increasing concentrations of an antagonist will decrease the reporter signal (e.g., luciferase production). The co-transfection assay is therefore useful to detect both agonists and antagonists of specific IRs. Furthermore, it determines not only whether a compound interacts with a particular IR, but whether this interaction mimics (agonizes) or blocks (antagonizes) the effects of native or synthetic regulatory molecules on target gene expression, as well as the specificity and strength of this interaction.
The receptor expression plasmid was cotransfected along with a reporter plasmid at 50 ng/well, the internal control plasmid pRS-β-Gal at 50 ng/well and filler DNA, pGEM, at 90 ng/well.
Six hours after transfection, media was removed and the cells were washed with phosphate-buffered saline (PBS). Media containing compounds of the present invention in concentrations ranging from 10^−10 to 10^−5 M were added to the cells. […] Retinoids were dissolved in dimethylsulfoxide for use in the transcriptional activation assays. Two to three replicates were used for each sample. Transfections and subsequent procedures were performed on a Biomek 1000 automated workstation.
After 40 hours, the cells were washed with PBS, lysed with a detergent-based buffer and assayed for LUC and β-Gal activities using a luminometer or spectrophotometer, respectively. For each replicate, the normalized response (NR) was calculated as: […]
The mean and standard error of the mean (SEM) of the NR were calculated. Data were plotted as the response of the compound compared to the reference compounds over the range of the dose-response curve. […] Antagonist activity was determined by testing the amount of LUC expression in the presence of the RXR agonists described above at the EC50 concentration for such known compounds. […] In addition, the efficacy of antagonists was determined as a function (%) of maximal inhibition.

[3] = target: T3, RXRα:RAR heterodimer (Homo sapiens, UniProt P19793); assay: RXR:RAR heterodimer co-transfection assay in CV-1 cells; format: cell-based
T3 construct: expressed in transfected cells; host or cells: CV-1 cells
T3 sequence (P19793 1-462): T1 sequence (P19793 1-462)
Experimental: For determination of agonist activity in the context of the RXR:RAR heterodimer or the RXR:PPARγ heterodimer, media containing compounds of the present invention in concentrations ranging from 10^−10 to 10^−5 M were added to the cells.
Compounds of the present invention were also tested for the ability to synergize with a PPARγ agonist in the context of an RXR heterodimer. […] Efficacy of the compounds of the present invention in the agonist and synergy assays was calculated as the maximum response obtained over the range of the dose response curve relative to the maximum response obtained by the reference agonist. Antagonist efficacy was determined as a function (%) of maximal inhibition.
However, when RAR is occupied, typical RXR agonists activate the heterodimer. […] To examine the effects of the compounds of the present invention on the transcriptional properties of the RXR:RAR heterodimer, a heterodimer cotransfection assay as described above was employed.

[4] = system: db/db mouse; assay: db/db mouse study (rodent model of Type II diabetes); conditions: for db/db mouse Glu. (D 14): plasma glucose, 100 mg/kg daily oral gavage; for db/db mouse Glu. (D 14) / db/db mouse Trigs. (D 14): % correction relative to lean values, day 14; for db/db mouse Trigs. (D 14): plasma triglycerides
Experimental: Mice (obtained from Jackson Laboratory), ZDF rats (obtained from Genetic Models Inc.) and fa/fa rats (obtained from either Charles River, or Harlan) were maintained on 12-hour light/dark cycle. […] Compounds were administered at the specified doses by oral gavage on the morning of each day of any experiment. Blood samples were obtained 3 hours after dosing from fed animals under anesthesia and collected into heparinized capillary tubes from the tail vein.

[5] = Table 3, mean of n > 3, read-out: RXRα Binding Ki
[6] = from IC50 by Cheng-Prussof equation, tritiated LGD1069, read-out: Bind RXRα Ki
[7] = Table 3 c4, in presence of 3.2×10^−8 M LGD1069
[8] = not calculated if efficacy <10%
[9] = maximal repression (100%) in presence of 10 nM TTNPB
[10] = relative to maximal repression (100%) in presence of 10 nM TTNPB
[11] = rodent models of Type II Diabetes
[12] = CV-1, read-out: RXR:RAR CV-1 (%) Ag.
[13] = CV-1, read-out: RXRα:RAR Heterodimer Cotransfection Assay Agonist Efficacy (%)

| Compound | Ki [1, 5] | Ki [1, 6] | RXRα Homodimer Cotransfection Assay Agonist Efficacy (%) ([2]; Table 3 c2, mean of n > 3) | RXRα Homodimer Cotransfection Assay Agonist Efficacy (%) [2, 7] | activity on the RXR:RXR homodimer [2] | IC50 [2, 8] | RXR:RXR CV-1 (%) Antag. [2] | RXR:RXR CV-1 (%) Ag. [2] | antagonist activity on the RXR:RAR heterodimer ([3]; antagonist assay) | agonist activity on the RXR:RAR heterodimer ([3]; compound alone) | RXR:RAR CV-1 (%) Antag. [3, 9] | RXRα:RAR Heterodimer Cotransfection Assay Antagonist Efficacy (%) [3, 10] | db/db mouse Glu. (D 14) [4] | effect on the thyroid hormone axis [4, 11] | Emax [3, 12] | Emax [3, 13] | db/db mouse Trigs. (D 14) ([4]; NC = no change) | further results |
| --- | --- | --- | --- | --- | --- | --- | --- | --- | --- | --- | --- | --- | --- | --- | --- | --- | --- | --- |
| CCCCCCCOc1c(/C(C)=C/C=C/C(C)=C/C(=O)O)cc(C(C)(C)C)cc1C(C)(C)C [Compound L5] | 0.6 nM | 0.6 nM | 0% | 94% | full antagonists; also recorded: highly efficacious and potent antagonist activity with little or no agonist activity | 10 nM | 94% | 0% | significant RXR:RAR antagonist activity | not active as RXR:RAR agonists | 68% | 68% | 0% | no effect |  |  |  | Emax ([3]; CV-1; read-out: RXR:RAR CV-1 (%) Ag.): 5%; Emax ([3]; CV-1; read-out: RXRα:RAR Heterodimer Cotransfection Assay Agonist Efficacy (%)): 5%; effect on triglycerides [4, 11]: no effect; insulin sensitizing activity / effect on glucose [4, 11]: no effect |
| CCCOc1c(/C(C)=C/C=C/C(C)=C/C(=O)O)cc(C(C)(C)C)cc1C(C)(C)C [Compound L3] | 1.1 nM | 1 nM | 2% | 90% | highly efficacious and potent antagonist activity with little or no agonist activity | 5 nM | 90% | 2% | significant RXR:RAR antagonist activity | not active as RXR:RAR agonists | 84% | 84% | 75% | absence of detectable suppression of the thyroid hormone axis; also recorded: does not | 5% | 5% | 133% | RXR:RAR antagonist activity relative to L2 ([3]; comparison of L3 with L2): approximately twice the RXR:RAR antagonist activity as L2; insulin sensitizing activity with thyroid axis suppression and triglyceride elevations [4, 11]: maintain the desirable insulin sensitizing activity and eliminate or reduce both the suppression of the thyroid axis and triglyceride elevations; also recorded: maintain the desirable insulin sensitizing activity and minimize both the suppression of the thyroid axis and triglyceride elevations |
| CCOc1c(/C(C)=C/C=C/C(C)=C/C(=O)O)cc(C(C)(C)C)cc1C(C)(C)C [Compound L2] | 13 nM | 13 nM | 11% | 62% | partial agonist | 9 nM | 62% | 11% |  | not active in the RXR:RAR assay | 49% | 49% | 91% | suppresses thyroid hormone axis | 6% | 6% | 116% | EC50 ([2]; not calculated if efficacy <10%, read-out: RXRα Homodimer Cotransfection Assay Agonist EC50): 14 nM; db/db mouse T4 (D 3) ([4]; total T4 as % of obese control values, day 3, NC = no change): 45% |

Reference: US20040049072A1, “RXR modulators with improved pharmacologic profile” (priority 1999, published 2004)
